Legend:
[1] = tested on: Serotonin (5-HT) uptake by rat brain synaptosome; test: Serotonin (5-HT) uptake inhibitory activity by rat brain synaptosome; format: biochemical; settings: test compound 300 nM; rat frontal cortex crude synaptosome; tritium labeled 5-HT 8 nM
Procedure: Measurement of Serotonin (5-HT) Uptake Inhibitory Activity of a Test Compound by Rat Brain Synaptosome
Wistar male rats were decapitated, the brain was retrieved and frontal cortex was dissected out, and it was homogenized in 0.32 M sucrose solution of a weight 20 times of the weight of the tissue using a Potter type homogenizer.
5-HT uptake reaction was performed in a volume of 200 μl using a 96-well round bottom plate and pargyline (final concentration 10 μM) and sodium ascorbate (final concentration 0.2 mg/ml) were contained in the incubation buffer upon reaction and used.
Incubation buffer (total counting), non-labeled 5-HT (final concentration 10 μM, non-specific counting) and the diluted test compound (final concentration 300 nM) were added to each well. One-tenth quantity of the final volume of the synaptosome fraction was added and after preincubated at 37° C. for 10 minutes, tritium labeled 5-HT solution (final concentration 8 nM) was added and uptake reaction was started at 37° C. The uptake time was 10 minutes and the reaction was terminated by vacuum filtration through a 96-well fiber glass filter paper plate, and after the filter paper was washed with cold normal saline, it was dried enough and Microscint0 (Perkin-Elmer) was added to the filter and remaining radioactivity on the filter was measured.

[2] = molecular target: Human recombinant dopamine D2 receptor (Homo sapiens (Human), UniProt P14416); settings: forskolin stimulation; well without test compound = 100%; CHO/DHFR(-) cells
Procedure: Partial agonistic activity on dopamine D2 receptor using D2 receptor expression cells
Partial agonistic activity on dopamine D2 receptor was evaluated by quantitatively determining cyclic AMP production inhibitory effect of a test compound in dopamine D2 receptor expression cells in which adenosine 3′,5′-cyclic monophosphate (cyclic AMP) production was induced by forskolin stimulation.
Human recombinant dopamine D2 receptor expressing Chinese hamster ovary/DHFR(−) cells were cultured in a culture medium (Iscove's Modified Dulbecco's Medium (IMDM culture medium), 10% fetal bovine serum, 50 I.U./ml penicillin, 50 μg/ml streptomycin, 200 μg/ml geneticin, 0.1 mM sodium hypoxanthine, 16 μM thymidine) at 37° C. and 5% carbon dioxide condition. Cells were seeded at 10^4 cells/well on a 96-well microtiter plate coated with poly-L-lysine and grown under the same condition for 2 days. Each well was washed with 100 μl of a culture medium (IMDM culture medium, 0.1 mM sodium hypoxanthine, 16 μM thymidine).

Sequence of Human recombinant dopamine D2 receptor (P14416 whole entry): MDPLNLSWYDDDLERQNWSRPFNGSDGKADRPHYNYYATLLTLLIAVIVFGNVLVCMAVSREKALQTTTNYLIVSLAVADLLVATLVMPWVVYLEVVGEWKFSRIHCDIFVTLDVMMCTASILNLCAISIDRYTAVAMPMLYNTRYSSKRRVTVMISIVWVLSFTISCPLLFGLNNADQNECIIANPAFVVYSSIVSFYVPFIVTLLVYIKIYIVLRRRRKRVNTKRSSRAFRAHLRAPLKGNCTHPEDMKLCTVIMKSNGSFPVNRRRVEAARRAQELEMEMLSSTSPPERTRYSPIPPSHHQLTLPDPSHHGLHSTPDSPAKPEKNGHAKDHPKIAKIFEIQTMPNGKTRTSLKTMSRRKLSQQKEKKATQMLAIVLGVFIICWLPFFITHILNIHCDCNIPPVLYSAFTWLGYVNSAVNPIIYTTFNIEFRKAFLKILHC

Row | SMILES | Serotonin uptake inhibitory ratio (%)(300 nM) [1] | quantity of cyclic AMP as the maximum activity [2]
1 | O=c1ccc2ccc(OCCCCN3CCN(c4cccc5sccc45)CC3)cc2[nH]1 [Example 1, 7-[4-(4-benzo[b]thiophen-4-yl-piperazin-1-yl)butoxy]-1H-quinolin-2-one] | 92.4% | 
2 | O=c1[nH]c2ccccc2cc1OCCN1CCN(c2cccc3sccc23)CC1 [Example 2, 3-[2-(4-benzo[b]thiophen-4-yl-piperazin-1-yl)ethoxy]-1H-quinolin-2-one] | 78.8% | 
3 | Cc1cc(=O)[nH]c2cc(OCCCN3CCN(c4cccc5sccc45)CC3)ccc12 [Example 3, 7-[3-(4-benzo[b]thiophen-4-yl-piperazin-1-yl)propoxy]-4-methyl-1H-quinolin-2-one] | 84.8% | 
4 | Cc1cc(=O)[nH]c2cc(OCCCCN3CCN(c4cccc5sccc45)CC3)ccc12 [Example 4, 7-[4-(4-benzo[b]thiophen-4-yl-piperazin-1-yl)butoxy]-4-methyl-1H-quinolin-2-one] | 91.0% | 
5 | Cc1cc2ccc(OCCCN3CCN(c4cccc5sccc45)CC3)cc2[nH]c1=O [Example 5, 7-[3-(4-benzo[b]thiophen-4-yl-piperazin-1-yl)propoxy]-3-methyl-1H-quinolin-2-one] | 89.1% | 
6 | Cc1cc2ccc(OCCCCN3CCN(c4cccc5sccc45)CC3)cc2[nH]c1=O [Example 6, 7-[4-(4-benzo[b]thiophen-4-yl-piperazin-1-yl)butoxy]-3-methyl-1H-quinolin-2-one] | 91.3% | 
7 | O=c1ccc2ccc(OCCCN3CCN(c4cccc5sccc45)CC3)cc2[nH]1 [Example 7, 7-[3-(4-benzo[b]thiophen-4-yl-piperazin-1-yl)propoxy]-1H-quinolin-2-one] | 91.0% | 
8 | O=C1CCc2ccc(OCCCN3CCN(c4cccc5sccc45)CC3)cc2N1 [Example 10, 7-[3-(4-benzo[b]thiophen-4-yl-piperazin-1-yl)propoxy]-3,4-dihydro-1H-quinolin-2-one] | 92.6% | 
9 | O=C1CCc2ccc(OC/C=C\CN3CCN(c4cccc5sccc45)CC3)cc2N1 [Example 13, 7-[4-(4-benzo[b]thiophen-4-yl-piperazin-1-yl)-(Z)-2-butenyloxy]-3,4-dihydro-1H-quinolin-2-one] | 77.0% | 
10 | O=C1CCc2ccc(OC/C=C/CN3CCN(c4cccc5sccc45)CC3)cc2N1 [Example 15, 7-[4-(4-benzo[b]thiophen-4-yl-piperazin-1-yl)-(E)-2-butenyloxy]-3,4-dihydro-1H-quinolin-2-one] | 87.2% | 
11 | CC1CC(=O)Nc2cc(OCCCCN3CCN(c4cccc5sccc45)CC3)ccc21 (stereo not shown) [Example 16, 7-[4-(4-benzo[b]thiophen-4-yl-piperazin-1-yl)butoxy]-4-methyl-3,4-dihydro-1H-quinolin-2-one] | 86.7% | 
12 | O=C1CCc2cc(OCCCCN3CCN(c4cccc5sccc45)CC3)ccc2N1 [Example 20, 6-[4-(4-benzo[b]thiophen-4-yl-piperazin-1-yl)butoxy]-3,4-dihydro-1H-quinolin-2-one] | 92.8% | 
13 | O=C1c2ccccc2CCN1CCCCCN1CCN(c2cccc3sccc23)CC1 [Example 24, 2-[5-(4-benzo[b]thiophen-4-yl-piperazin-1-yl)pentyl]-3,4-dihydro-2H-isoquinolin-1-one] | 97.5% | 
14 | O=C1NCCc2cc(OCCCN3CCN(c4cccc5sccc45)CC3)ccc21 [Example 25, 6-[3-(4-benzo[b]thiophen-4-yl-piperazin-1-yl)propoxy]-3,4-dihydro-2H-isoquinolin-1-one] | 91.9% | 
15 | CN1CCc2cc(OCCCN3CCN(c4cccc5sccc45)CC3)ccc2C1=O [Example 26, 6-[3-(4-benzo[b]thiophen-4-yl-piperazin-1-yl)propoxy]-2-methyl-3,4-dihydro-2H-isoquinolin-1-one] | 92.0% | 
16 | CCN1CCc2cc(OCCCN3CCN(c4cccc5sccc45)CC3)ccc2C1=O [Example 27, 6-[3-(4-benzo[b]thiophen-4-yl-piperazin-1-yl)propoxy]-2-ethyl-3,4-dihydro-2H-isoquinolin-1-one] | 94.0% | 
17 | O=c1c2ccccc2ccn1CCCCN1CCN(c2cccc3sccc23)CC1 [Example 34, 2-[4-(4-benzo[b]thiophen-4-yl-piperazin-1-yl)butyl]-2H-isoquinolin-1-one] | 94.2% | 
18 | O=c1[nH]ccc2cc(OCCCN3CCN(c4cccc5sccc45)CC3)ccc12 [Example 40, 6-[3-(4-benzo[b]thiophen-4-yl-piperazin-1-yl)propoxy]-2H-isoquinolin-1-one] | 91.6% | 
19 | NCCc1ccc(O)c(O)c1 [dopamine] |  | about 10%

Source: patent USRE48059E1, “Piperazine-substituted benzothiophenes for treatment of mental disorders” (Otsuka Pharmaceutical Co., Ltd., priority 2005, dated 2020)
